Assays:
[1] = cited from earlier work
[2] = tested on: PDH; conditions: cited from earlier work

CC(C)(O)C(=O)Nc1ccc(S(=O)(=O)c2ccccc2)cc1F
melting point: 155.5 to 156.5 °C

C[S+]([O-])c1ccccc1S(=O)(=O)c1ccc(NC(=O)[C@@](C)(O)C(F)(F)F)c(Cl)c1 (stereo partly shown)
melting point: 118 to 120 °C

CC(=O)Nc1cc(S(=O)(=O)c2ccccc2)ccc1NC(=O)C(C)(O)C(F)(F)F (stereo not shown)
melting point: 205 to 207 °C

CC(C)(O)C(=O)Nc1ccc(Sc2ccccc2)cc1F
melting point: 91 to 92.5 °C

CC(C)(O)C(=O)Nc1ccc(Sc2ccc(NS(C)(=O)=O)cc2)cc1Cl
melting point: 138 to 140 °C

C[C@@](O)(C(=O)Nc1ccc(S(=O)(=O)c2ccccc2NCCO)cc1Cl)C(F)(F)F
melting point: 68 to 70 °C

O=C(O)C(Cl)Cl [DCA, dichloroacetic acid]
glycaemia ([1]; Stacpoole et al. 1978): reducing glycaemia
plasma glucose ([1]; after repeated administration (Evans and Stacpoole 1982)): significant decrease in plasma glucose
activity of PDH ([2]; after acute administration in animals (Vary et al. 1988)): increases the activity of PDH
proportion of PDH in its active form ([2]; single administration, 150 mg/kg, intraperitoneally (Vary et al. 1988)): increased the proportion of PDH in its active form
